# Assay results taken from patent US20130005747A1, “METHOD FOR SELECTING A CANCER THERAPY” (Cyclacel Limited, priority 2010, published 2013).
# How the values were obtained:
# [1] = system: PCI-15A; experiment: Fractional growth, 72 h seliciclib; format: cell-based, human; conditions: PCI-15A (Head & Neck), 15 μM seliciclib
# Source text: (§1) A total of 270 human cancer cell lines from diverse cancer histopathologic types were investigated.
# [2] = system: NCI-H1793; experiment: Fractional growth, 72 h seliciclib; format: cell-based, human; conditions: NCI-H1793 (Lung: NSCLC), 15 μM seliciclib
# Source text: as §1
# [3] = system: G-292 Clone A141B1; experiment: Fractional growth, 72 h seliciclib; format: cell-based, human; conditions: G-292 Clone A141B1 (Bone), 15 μM seliciclib
# Source text: as §1
# [4] = system: NCI-H841; experiment: Fractional growth, 72 h seliciclib; format: cell-based, human; conditions: NCI-H841 (Lung), 15 μM seliciclib
# Source text: as §1
# [5] = system: Detroit 562; experiment: Fractional growth, 72 h seliciclib; format: cell-based, human; conditions: Detroit 562 (Head & Neck), 15 μM seliciclib
# Source text: as §1
# [6] = system: COR-L23; experiment: Fractional growth, 72 h seliciclib; format: cell-based, human; conditions: COR-L23 (Lung: NSCLC), 15 μM seliciclib
# Source text: as §1
# [7] = system: HDQ-P1; experiment: Fractional growth, 72 h seliciclib; format: cell-based, human; conditions: HDQ-P1 (Breast), 15 μM seliciclib
# Source text: as §1
# [8] = system: MFE-280; experiment: Fractional growth, 72 h seliciclib; format: cell-based, human; conditions: MFE-280 (Uterus), 15 μM seliciclib
# Source text: as §1
# [9] = system: A673; experiment: Fractional growth, 72 h seliciclib; format: cell-based, human; conditions: A673 (Muscle), 15 μM seliciclib
# Source text: as §1
# [10] = system: Calu-3; experiment: Fractional growth, 72 h seliciclib; format: cell-based, human; conditions: Calu-3 (Lung: NSCLC), 15 μM seliciclib
# Source text: as §1
# [11] = system: KATO III; experiment: Fractional growth, 72 h seliciclib; format: cell-based, human; conditions: KATO III (Stomach), 15 μM seliciclib
# Source text: as §1
# [12] = system: JHU-028; experiment: Fractional growth, 72 h seliciclib; format: cell-based, human; conditions: JHU-028 (Head & Neck), 15 μM seliciclib
# Source text: as §1
# [13] = system: LCLC-103H; experiment: Fractional growth, 72 h seliciclib; format: cell-based, human; conditions: LCLC-103H (Lung: NSCLC), 15 μM seliciclib
# Source text: as §1
# [14] = system: BT-549; experiment: Fractional growth, 72 h seliciclib; format: cell-based, human; conditions: BT-549 (Breast), 15 μM seliciclib
# Source text: as §1
# [15] = system: LS174T; experiment: Fractional growth, 72 h seliciclib; format: cell-based, human; conditions: LS174T (Intestine), 15 μM seliciclib
# Source text: as §1
# [16] = system: SCCH-196; experiment: Fractional growth, 72 h seliciclib; format: cell-based, human; conditions: SCCH-196 (Miscellaneous), 15 μM seliciclib
# Source text: as §1
# [17] = system: JHH-6; experiment: Fractional growth, 72 h seliciclib; format: cell-based, human; conditions: JHH-6 (Liver), 15 μM seliciclib
# Source text: as §1
# [18] = system: A549; experiment: Fractional growth, 72 h seliciclib; format: cell-based, human; conditions: A549 (Lung: NSCLC), 15 μM seliciclib
# Source text: as §1
# [19] = system: AN3CA; experiment: Fractional growth, 72 h seliciclib; format: cell-based, human; conditions: AN3CA (Uterus), 15 μM seliciclib
# Source text: as §1
# [20] = system: KYSE-510; experiment: Fractional growth, 72 h seliciclib; format: cell-based, human; conditions: KYSE-510 (Esophagus), 15 μM seliciclib
# Source text: as §1
# [21] = system: EBC-1; experiment: Fractional growth, 72 h seliciclib; format: cell-based, human; conditions: EBC-1 (Lung: NSCLC), 15 μM seliciclib
# Source text: as §1
# [22] = system: MGH-MC-1; experiment: Fractional growth, 72 h seliciclib; format: cell-based, human; conditions: MGH-MC-1 (Skin), 15 μM seliciclib
# Source text: as §1
# [23] = system: 5637; experiment: Fractional growth, 72 h seliciclib; format: cell-based, human; conditions: 5637 (Bladder), 15 μM seliciclib
# Source text: as §1
# [24] = system: HARA; experiment: Fractional growth, 72 h seliciclib; format: cell-based, human; conditions: HARA (Lung: NSCLC), 15 μM seliciclib
# Source text: as §1
# [25] = system: Hs 766T; experiment: Fractional growth, 72 h seliciclib; format: cell-based, human; conditions: Hs 766T (Pancreas), 15 μM seliciclib
# Source text: as §1
# [26] = system: HeLa; experiment: Fractional growth, 72 h seliciclib; format: cell-based, human; conditions: HeLa (Cervix), 15 μM seliciclib
# Source text: as §1
# [27] = system: A431; experiment: Fractional growth, 72 h seliciclib; format: cell-based, human; conditions: A431 (Skin), 15 μM seliciclib
# Source text: as §1
# [28] = system: CAL-12T; experiment: Fractional growth, 72 h seliciclib; format: cell-based, human; conditions: CAL-12T (Lung: NSCLC), 15 μM seliciclib
# Source text: as §1
# [29] = system: KP-3L; experiment: Fractional growth, 72 h seliciclib; format: cell-based, human; conditions: KP-3L (Pancreas), 15 μM seliciclib
# Source text: as §1
# [30] = system: SISO; experiment: Fractional growth, 72 h seliciclib; format: cell-based, human; conditions: SISO (Cervix), 15 μM seliciclib
# Source text: as §1
# [31] = system: 143B; experiment: Fractional growth, 72 h seliciclib; format: cell-based, human; conditions: 143B (Bone), 15 μM seliciclib
# Source text: as §1
# [32] = system: H2373; experiment: Fractional growth, 72 h seliciclib; format: cell-based, human; conditions: H2373 (Lung), 15 μM seliciclib
# Source text: as §1
# [33] = system: HUP-T3; experiment: Fractional growth, 72 h seliciclib; format: cell-based, human; conditions: HUP-T3 (Pancreas), 15 μM seliciclib
# Source text: as §1
# [34] = system: HOP-62 human lung cancer cell line; experiment: Growth inhibition of lung cancer cells (FIG. 6); format: cell-based; conditions: for growth inhibition / sensitivity (in words): 72 hours post-treatments
# Source text: (§2) Thus, findings from this large panel of cancer cell lines indicated significant roscovitine sensitivity well beyond those human and murine lung cancer cells already investigated. For lung cancer cells, this response is tightly associated with the presence of ras activation in highly responsive cells.
# [35] = system: H-23 human lung cancer cell line; experiment: Growth inhibition of lung cancer cells (FIG. 6); format: cell-based; conditions: for growth inhibition / sensitivity (in words): 72 hours post-treatments
# Source text: as §2
# [36] = seliciclib combined with docetaxel
# [37] = seliciclib combined with paclitaxel
structure (smiles),measurement,setting,value
"CC[C@H](CO)Nc1nc(NCc2ccccc2)c2ncn(C(C)C)c2n1 [seliciclib, roscovitine]",Fractional Growth,[1],0.4965
same,Fractional Growth,[2],0.6274
same,Fractional Growth,[3],0.6393
same,Fractional Growth,[4],0.7639
same,Fractional Growth,[5],0.1846
same,Fractional Growth,[6],0.2341
same,Fractional Growth,[7],0.8137
same,Fractional Growth,[8],0.5959
same,Fractional Growth,[9],0.4111
same,Fractional Growth,[10],0.6463
same,Fractional Growth,[11],0.4299
same,Fractional Growth,[12],0.5325
same,Fractional Growth,[13],0.5051
same,Fractional Growth,[14],0.758
same,Fractional Growth,[15],0.3713
same,Fractional Growth,[16],0.6177
same,Fractional Growth,[17],0.3234
same,Fractional Growth,[18],0.1925
same,Fractional Growth,[19],0.2094
same,Fractional Growth,[20],0.4141
same,Fractional Growth,[21],0.3971
same,Fractional Growth,[22],0.4543
same,Fractional Growth,[23],0.6151
same,Fractional Growth,[24],0.6182
same,Fractional Growth,[25],0.4284
same,Fractional Growth,[26],0.9192
same,Fractional Growth,[27],0.3116
same,Fractional Growth,[28],0.3472
same,Fractional Growth,[29],0.4338
same,Fractional Growth,[30],0.6424
same,Fractional Growth,[31],0.6124
same,Fractional Growth,[32],0.6168
same,Fractional Growth,[33],0.4333
same,growth inhibition / sensitivity (in words),[34]; listed as Seliciclib,dose-dependent growth inhibition
same,growth inhibition / sensitivity (in words),[34]; listed as roscovitine,more sensitive to roscovitine that H-522 lung cancer cells
same,"proliferation, combined treatment (in words)",[34]; [36],cooperatively inhibited proliferation
same,"proliferation, combined treatment (in words)",[34]; [37],cooperatively inhibited proliferation
same,growth inhibition / sensitivity (in words),[35]; listed as Seliciclib,dose-dependent growth inhibition
same,growth inhibition / sensitivity (in words),[35]; listed as roscovitine,more sensitive to roscovitine that H-522 lung cancer cells
same,"proliferation, combined treatment (in words)",[35]; [36],cooperatively inhibited proliferation
same,"proliferation, combined treatment (in words)",[35]; [37],cooperatively inhibited proliferation
